Data reported in patent US9315505B2, “Heterocyclic compounds and uses thereof” (INTELLIKINE LLC, priority 2009, dated 2016).

Biological target: T1, PI3K α (Homo sapiens, UniProt P42336)
T1 construct: purchased Upstate
Test: In vitro IC50, PI3K α (p110α/p85α inhibition assay)
Format: biochemical
Settings: in vitro kinase assay; read-out: IC50(nM) PI3K α
Procedure: (§1) IC50 values are measured using either a standard TLC assay for lipid kinase activity (described below) or a high-throughput membrane capture assay. Kinase reactions are performed by preparing a reaction mixture containing kinase, inhibitor (2% DMSO final concentration), buffer (25 mM HEPES, pH 7.4, 10 mM MgCl2), and freshly sonicated phosphatidylinositol (100 μg/ml). Reactions are initiated by the addition of ATP containing 10 μCi of γ-32P-ATP to a final concentration 10 or 100 μM and allowed to proceed for 5 minutes at room temperature. For TLC analysis, reactions are then terminated by the addition of 105 μl 1N HCl followed by 160 μl CHCl3:MeOH (1:1). The biphasic mixture is vortexed, briefly centrifuged, and the organic phase is transferred to a new tube using a gel loading pipette tip precoated with CHCl3. This extract is spotted on TLC plates and developed for 3-4 hours in a 65:35 solution of n-propanol:1M acetic acid. The TLC plates are then dried, exposed to a phosphorimager screen (Storm, Amersham), and quantitated.
(§2) Other commercial kits or systems for assaying PI3-K activities are available. The commercially available kits or systems can be used to screen for inhibitors and/or agonists of PI3-Ks including but not limited to PI 3-Kinase α, β, δ, and γ. An exemplary system is PI 3-Kinase (human) HTRF™ Assay from Upstate. […] Briefly, the assay is a time resolved FRET assay that indirectly measures PIP3 product formed by the activity of a PI3-K. The kinase reaction is performed in a microtitre plate (e.g., a 384 well microtitre plate). The total reaction volume is approximately 20 ul per well. In the first step, each well receives 2 ul of test compound in 20% dimethylsulphoxide resulting in a 2% DMSO final concentration. Next, approximately 14.5 ul of a kinase/PIP2 mixture (diluted in 1× reaction buffer) is added per well for a final concentration of 0.25-0.3 ug/ml kinase and 10 uM PIP2. The plate is sealed and incubated for 15 minutes at room temperature. To start the reaction, 3.5 ul of ATP (diluted in 1× reaction buffer) is added per well for a final concentration of 10 uM ATP. The plate is sealed and incubated for 1 hour at room temperature. The reaction is stopped by adding 5 ul of Stop Solution per well and then 5 ul of Detection Mix is added per well. The plate is sealed, incubated for 1 hour at room temperature, and then read on an appropriate plate reader. Data is analyzed and IC50s are generated using GraphPad Prism 5.

T1 sequence (P42336 whole entry): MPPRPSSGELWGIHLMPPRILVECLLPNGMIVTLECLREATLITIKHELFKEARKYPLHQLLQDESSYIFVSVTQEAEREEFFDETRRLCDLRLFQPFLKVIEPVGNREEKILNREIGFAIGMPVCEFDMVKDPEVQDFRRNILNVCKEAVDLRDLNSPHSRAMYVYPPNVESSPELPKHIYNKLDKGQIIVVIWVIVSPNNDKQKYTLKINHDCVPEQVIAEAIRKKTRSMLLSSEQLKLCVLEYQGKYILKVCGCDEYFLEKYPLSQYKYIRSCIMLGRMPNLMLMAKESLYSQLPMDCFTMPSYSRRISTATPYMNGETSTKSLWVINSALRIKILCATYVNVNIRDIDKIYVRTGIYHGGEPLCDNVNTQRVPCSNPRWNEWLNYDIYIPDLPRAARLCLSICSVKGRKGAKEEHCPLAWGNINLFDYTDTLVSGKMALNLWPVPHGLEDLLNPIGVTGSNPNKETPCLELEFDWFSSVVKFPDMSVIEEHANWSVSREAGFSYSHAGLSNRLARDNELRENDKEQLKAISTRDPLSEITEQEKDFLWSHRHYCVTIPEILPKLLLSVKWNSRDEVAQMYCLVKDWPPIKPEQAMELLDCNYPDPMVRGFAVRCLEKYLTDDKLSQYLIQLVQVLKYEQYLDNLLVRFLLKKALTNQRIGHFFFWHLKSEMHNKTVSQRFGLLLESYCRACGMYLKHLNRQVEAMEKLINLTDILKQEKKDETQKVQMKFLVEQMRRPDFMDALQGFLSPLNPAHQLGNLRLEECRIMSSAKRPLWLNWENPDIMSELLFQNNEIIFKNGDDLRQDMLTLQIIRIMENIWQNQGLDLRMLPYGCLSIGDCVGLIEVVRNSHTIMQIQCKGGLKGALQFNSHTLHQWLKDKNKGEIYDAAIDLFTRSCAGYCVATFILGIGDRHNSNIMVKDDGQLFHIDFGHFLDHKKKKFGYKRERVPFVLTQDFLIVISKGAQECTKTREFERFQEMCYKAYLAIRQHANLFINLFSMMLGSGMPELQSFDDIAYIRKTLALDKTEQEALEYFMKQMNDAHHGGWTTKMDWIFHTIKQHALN
T1 sequence (P27986 whole entry partner): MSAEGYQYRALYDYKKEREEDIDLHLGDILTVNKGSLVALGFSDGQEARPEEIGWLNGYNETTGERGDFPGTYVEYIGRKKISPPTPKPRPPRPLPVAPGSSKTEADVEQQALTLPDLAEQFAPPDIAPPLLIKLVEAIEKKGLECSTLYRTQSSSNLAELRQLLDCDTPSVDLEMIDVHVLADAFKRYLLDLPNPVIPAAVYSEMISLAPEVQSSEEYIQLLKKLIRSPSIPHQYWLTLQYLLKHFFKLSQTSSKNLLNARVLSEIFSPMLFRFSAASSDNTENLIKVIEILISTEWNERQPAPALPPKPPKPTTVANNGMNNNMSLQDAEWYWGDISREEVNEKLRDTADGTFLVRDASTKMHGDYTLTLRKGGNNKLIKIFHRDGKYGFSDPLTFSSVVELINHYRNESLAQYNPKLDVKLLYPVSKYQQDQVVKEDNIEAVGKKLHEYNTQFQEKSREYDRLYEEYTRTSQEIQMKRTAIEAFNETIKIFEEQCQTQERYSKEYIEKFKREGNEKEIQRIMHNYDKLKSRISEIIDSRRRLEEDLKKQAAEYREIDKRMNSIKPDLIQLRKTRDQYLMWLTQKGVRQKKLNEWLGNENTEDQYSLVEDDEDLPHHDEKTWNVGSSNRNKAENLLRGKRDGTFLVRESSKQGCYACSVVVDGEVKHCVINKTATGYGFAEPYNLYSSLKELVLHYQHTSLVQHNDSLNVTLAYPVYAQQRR

SMILES | IC50
CC(=O)N1CCN(CCc2nc(C(C)Nc3ncnc4[nH]cnc34)cc3cccc(Cl)c23)CC1 (stereo not shown) [Compound 81] | > 10000 nM
C[C@@H](Nc1ncnc2[nH]cnc12)c1cc2cccc(Cl)c2c(N2CCN(S(C)(=O)=O)CC2)n1 [Compound 83] | > 10000 nM
C[C@@H](Nc1ncnc2[nH]cnc12)c1cc2cccc(Cl)c2c(OC2CCN(S(C)(=O)=O)CC2)n1 [Compound 84] | > 10000 nM

Continued, values first:

IC50 | SMILES
> 10000 nM | C[C@H](Nc1ncnc2[nH]cnc12)c1cc2cccc(Cl)c2c(OCC2CCN(S(C)(=O)=O)CC2)n1 [Compound 75]
> 10000 nM | C[C@H](Nc1ncnc2[nH]cnc12)c1cc2ccccc2c(-c2cccnc2)n1 [Compound 76]
> 10000 nM | C[C@H](Nc1ncnc2[nH]cnc12)c1cc2ccccc2c(N2CCN(S(C)(=O)=O)CC2)n1 [Compound 77]
> 10000 nM | CC(Nc1ncnc2[nH]cnc12)c1cc2cccc(Cl)c2c(CCN2CCOCC2)n1 (stereo not shown) [Compound 78]
> 10000 nM | CC(Nc1ncnc2[nH]cnc12)c1cc2cccc(Cl)c2c(CCN2CCCC2)n1 (stereo not shown) [Compound 79]
> 10000 nM | CC(Nc1ncnc2[nH]cnc12)c1cc2cccc(Cl)c2c(CCN2CCN(S(C)(=O)=O)CC2)n1 (stereo not shown) [Compound 80]
> 10000 nM | C[C@H](Nc1ncnc2[nH]cnc12)c1cc2cccc(Cl)c2c(-c2cccnc2)n1 [Compound 82]

Biological target: T2, PI3K γ (Homo sapiens, UniProt P48736)
T2 construct: purchased Sigma
T2 sequence (P48736 whole entry): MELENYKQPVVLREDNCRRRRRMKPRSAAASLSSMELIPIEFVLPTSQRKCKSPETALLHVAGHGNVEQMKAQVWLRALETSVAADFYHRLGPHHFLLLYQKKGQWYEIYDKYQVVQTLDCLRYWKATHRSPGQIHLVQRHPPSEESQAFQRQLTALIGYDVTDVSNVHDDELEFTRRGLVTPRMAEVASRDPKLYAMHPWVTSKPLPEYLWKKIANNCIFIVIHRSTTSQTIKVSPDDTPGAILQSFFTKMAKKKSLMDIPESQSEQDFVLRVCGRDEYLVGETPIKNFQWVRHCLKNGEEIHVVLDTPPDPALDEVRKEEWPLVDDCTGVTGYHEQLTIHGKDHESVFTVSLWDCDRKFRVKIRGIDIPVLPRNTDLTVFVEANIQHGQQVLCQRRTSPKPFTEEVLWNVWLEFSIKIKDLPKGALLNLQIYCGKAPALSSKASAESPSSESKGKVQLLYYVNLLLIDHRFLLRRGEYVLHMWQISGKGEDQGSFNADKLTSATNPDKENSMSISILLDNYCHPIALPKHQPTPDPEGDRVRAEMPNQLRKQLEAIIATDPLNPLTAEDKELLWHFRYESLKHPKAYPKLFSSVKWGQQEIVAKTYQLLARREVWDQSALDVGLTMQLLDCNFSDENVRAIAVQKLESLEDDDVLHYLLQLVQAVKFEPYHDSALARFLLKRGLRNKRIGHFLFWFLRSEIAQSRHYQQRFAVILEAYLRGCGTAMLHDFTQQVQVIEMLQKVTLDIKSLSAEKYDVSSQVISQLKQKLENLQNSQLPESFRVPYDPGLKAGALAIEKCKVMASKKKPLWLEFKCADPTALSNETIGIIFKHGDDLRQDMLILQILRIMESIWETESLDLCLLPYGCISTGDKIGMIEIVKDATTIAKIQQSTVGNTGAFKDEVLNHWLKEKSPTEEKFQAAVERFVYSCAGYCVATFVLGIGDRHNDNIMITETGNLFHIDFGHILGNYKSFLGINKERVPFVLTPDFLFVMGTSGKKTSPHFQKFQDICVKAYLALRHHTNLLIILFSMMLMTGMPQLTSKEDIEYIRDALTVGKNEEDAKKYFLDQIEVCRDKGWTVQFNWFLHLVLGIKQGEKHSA
Test: In vitro IC50, PI3K γ (p110γ inhibition assay)
Format: biochemical
Settings: in vitro kinase assay
Procedure: as §1, with “Class I PI3-Ks can be either purchased (p110α/p85α, p110β/p85α, p110δ/p85α from Upstate, and p110γ from Sigma) or expressed as previously described (Knight et al., 2004). IC50” for “IC50”, “quantitated. For each compound, kinase activity is measured at 10-12 inhibitor concentrations representing two-fold dilutions from the highest concentration tested (typically, 200 μM).” for “quantitated.”
as §2

SMILES | IC50
Cc1cccc2cc(C(C)Nc3ncnc4[nH]cnc34)nc(OC3CCOCC3)c12 (stereo not shown) [Compound 40] | > 10000 nM
Cc1cccc2cc(C(C)Nc3ncnc4[nH]cnc34)nc(NC3CCN(C)CC3)c12 (stereo not shown) [Compound 41] | > 10000 nM
Cc1cccc2cc(C(C)Nc3ncnc4[nH]cnc34)nc(NC3CCOCC3)c12 (stereo not shown) [Compound 43] | > 10000 nM
CC(=O)N1CCN(CCc2nc(C(C)Nc3ncnc4[nH]cnc34)cc3cccc(Cl)c23)CC1 (stereo not shown) [Compound 81] | > 10000 nM
C[C@@H](Nc1ncnc2[nH]cnc12)c1cc2cccc(Cl)c2c(N2CCN(S(C)(=O)=O)CC2)n1 [Compound 83] | > 10000 nM
C[C@@H](Nc1ncnc2[nH]cnc12)c1cc2cccc(Cl)c2c(OC2CCN(S(C)(=O)=O)CC2)n1 [Compound 84] | > 10000 nM

Continued, values first:

IC50 | SMILES
> 10000 nM | Cc1cccc2cc(C(C)Nc3ncnc4[nH]cnc34)nc(N3CCN(C)CC3)c12 (stereo not shown) [Compound 19]
> 10000 nM | C[C@H](Nc1ncnc2[nH]cnc12)c1cc2cccc(Cl)c2c(OCC2CCN(S(C)(=O)=O)CC2)n1 [Compound 75]
< 10000 nM | C[C@H](Nc1ncnc2[nH]cnc12)c1cc2ccccc2c(-c2cccnc2)n1 [Compound 76]
> 10000 nM | C[C@H](Nc1ncnc2[nH]cnc12)c1cc2ccccc2c(N2CCN(S(C)(=O)=O)CC2)n1 [Compound 77]
< 10000 nM | CC(Nc1ncnc2[nH]cnc12)c1cc2cccc(Cl)c2c(CCN2CCOCC2)n1 (stereo not shown) [Compound 78]
< 10000 nM | CC(Nc1ncnc2[nH]cnc12)c1cc2cccc(Cl)c2c(CCN2CCCC2)n1 (stereo not shown) [Compound 79]
< 10000 nM | CC(Nc1ncnc2[nH]cnc12)c1cc2cccc(Cl)c2c(CCN2CCN(S(C)(=O)=O)CC2)n1 (stereo not shown) [Compound 80]
< 1000 nM | C[C@H](Nc1ncnc2[nH]cnc12)c1cc2cccc(Cl)c2c(-c2cccnc2)n1 [Compound 82]

Biological target: T3, PI3K δ (Homo sapiens, UniProt O00329)
T3 construct: purchased Upstate
T3 sequence (O00329 whole entry): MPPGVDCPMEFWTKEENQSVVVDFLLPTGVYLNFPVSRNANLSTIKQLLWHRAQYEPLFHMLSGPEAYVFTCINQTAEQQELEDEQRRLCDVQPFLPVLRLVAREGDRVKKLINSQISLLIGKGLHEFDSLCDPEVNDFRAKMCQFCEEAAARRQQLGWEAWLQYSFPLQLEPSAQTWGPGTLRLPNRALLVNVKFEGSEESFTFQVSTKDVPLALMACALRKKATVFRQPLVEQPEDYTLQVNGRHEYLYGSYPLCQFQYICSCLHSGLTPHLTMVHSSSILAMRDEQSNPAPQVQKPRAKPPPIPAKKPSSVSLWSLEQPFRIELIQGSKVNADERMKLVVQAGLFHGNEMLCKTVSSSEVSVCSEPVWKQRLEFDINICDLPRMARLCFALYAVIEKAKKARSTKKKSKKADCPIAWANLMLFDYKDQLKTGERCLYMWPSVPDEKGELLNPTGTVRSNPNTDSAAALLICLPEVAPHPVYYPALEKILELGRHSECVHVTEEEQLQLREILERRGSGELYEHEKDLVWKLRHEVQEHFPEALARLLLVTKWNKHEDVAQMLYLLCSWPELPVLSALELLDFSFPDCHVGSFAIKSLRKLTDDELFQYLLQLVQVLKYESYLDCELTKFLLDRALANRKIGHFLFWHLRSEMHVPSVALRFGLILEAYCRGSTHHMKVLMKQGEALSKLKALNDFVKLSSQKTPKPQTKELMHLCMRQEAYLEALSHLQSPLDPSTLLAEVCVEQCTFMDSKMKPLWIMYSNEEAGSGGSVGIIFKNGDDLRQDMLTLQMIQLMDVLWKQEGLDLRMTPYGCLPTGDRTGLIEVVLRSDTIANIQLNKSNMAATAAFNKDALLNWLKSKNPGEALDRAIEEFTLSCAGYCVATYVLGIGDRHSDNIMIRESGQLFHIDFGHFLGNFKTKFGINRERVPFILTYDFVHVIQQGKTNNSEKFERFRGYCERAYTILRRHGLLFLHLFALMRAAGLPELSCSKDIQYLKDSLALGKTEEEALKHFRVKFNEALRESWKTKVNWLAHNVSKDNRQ
T3 sequence (P27986 whole entry partner): as the sequence (P27986 whole entry partner) above
Test: In vitro IC50, PI3K δ (p110δ/p85α inhibition assay)
Format: biochemical
Settings: in vitro kinase assay; read-out: IC50(nM) PI3K δ
Procedure: as §1, §2

SMILES | IC50
CC(Nc1ncnc2[nH]cnc12)c1cc2ccccc2c(OC2CCNCC2)n1 (stereo not shown) [Compound 22] | < 10000 nM
Cc1cccc2cc(C(C)Nc3ncnc4[nH]cnc34)nc(Oc3ccccc3)c12 (stereo not shown) [Compound 24] | < 1000 nM
CC(=O)Nc1nc2ccc(-c3nn(Cc4cc5cccc(C)c5c(OC(C)C)n4)c4ncnc(N)c34)cc2s1 [Compound 28] | > 10000 nM
Cc1cccc2cc(Cn3nc(-c4ccc5oc(N)nc5c4)c4c(N)ncnc43)nc(OC(C)C)c12 [Compound 29] | > 10000 nM
Cc1cccc2cc(Cn3nc(-c4cn[nH]c4)c4c(N)ncnc43)nc(OC(C)C)c12 [Compound 30] | < 10000 nM
Cc1cccc2cc(C(C)Nc3ncnc4[nH]cnc34)nc(OC(C)C)c12 (stereo not shown) [Compound 32] | < 10000 nM
Cc1cccc2cc(C(Nc3ncnc4[nH]cnc34)c3ccccc3)ncc12 (stereo not shown) [Compound 33] | < 10000 nM
Cc1cccc2cc(Cn3nc(-c4ccc5oc(N)nc5c4)c4c(N)ncnc43)nc(Oc3ccccc3)c12 [Compound 34] | < 10000 nM
Cc1cccc2cc(C(C)Nc3ncnc4[nH]cnc34)nc(OC3CCOCC3)c12 (stereo not shown) [Compound 40] | < 1000 nM
Cc1cccc2cc(C(C)Nc3ncnc4[nH]cnc34)nc(NC3CCN(C)CC3)c12 (stereo not shown) [Compound 41] | < 1000 nM
Cc1cccc2cc(C(C)Nc3ncnc4[nH]cnc34)nc(NC3CCOCC3)c12 (stereo not shown) [Compound 43] | < 10000 nM
CC(=O)N1CCN(CCc2nc(C(C)Nc3ncnc4[nH]cnc34)cc3cccc(Cl)c23)CC1 (stereo not shown) [Compound 81] | < 1000 nM
C[C@@H](Nc1ncnc2[nH]cnc12)c1cc2cccc(Cl)c2c(N2CCN(S(C)(=O)=O)CC2)n1 [Compound 83] | > 10000 nM
C[C@@H](Nc1ncnc2[nH]cnc12)c1cc2cccc(Cl)c2c(OC2CCN(S(C)(=O)=O)CC2)n1 [Compound 84] | < 1000 nM

Now from value to compound:

IC50 | SMILES
< 100 nM | Cc1cccc2cc(C(C)Nc3ncnc4[nH]cnc34)nc(N3CCN(C)CC3)c12 (stereo not shown) [Compound 19]
< 100 nM | C[C@H](Nc1ncnc2[nH]cnc12)c1cc2cccc(Cl)c2c(OCC2CCN(S(C)(=O)=O)CC2)n1 [Compound 75]
< 1000 nM | C[C@H](Nc1ncnc2[nH]cnc12)c1cc2ccccc2c(-c2cccnc2)n1 [Compound 76]
< 1000 nM | C[C@H](Nc1ncnc2[nH]cnc12)c1cc2ccccc2c(N2CCN(S(C)(=O)=O)CC2)n1 [Compound 77]
< 100 nM | CC(Nc1ncnc2[nH]cnc12)c1cc2cccc(Cl)c2c(CCN2CCOCC2)n1 (stereo not shown) [Compound 78]
< 100 nM | CC(Nc1ncnc2[nH]cnc12)c1cc2cccc(Cl)c2c(CCN2CCCC2)n1 (stereo not shown) [Compound 79]
< 100 nM | CC(Nc1ncnc2[nH]cnc12)c1cc2cccc(Cl)c2c(CCN2CCN(S(C)(=O)=O)CC2)n1 (stereo not shown) [Compound 80]
< 100 nM | C[C@H](Nc1ncnc2[nH]cnc12)c1cc2cccc(Cl)c2c(-c2cccnc2)n1 [Compound 82]
